In patent publication US11306062B2, “Forms of fedratinib dihydrochloride” (Johnson Matthey Public Limited Company, priority 2019, dated 2022):

How the values were obtained:
[1] = Retention of Form A on slurrying in multiple solvents (XRPD); format: physicochemical; conditions: ~30 mg in 0.2 mL of each of water, ethanol, MTBE, IPA, IPAc, 3-methyl-1-butanol, toluene, anisole, acetone, THF, MEK, MIBK, DCM, 1,4-dioxane, 2-butanol, 2-methyl THF, isobutyl acetate, tert-butanol, methyl cyclohexane, CPME; slurried about 3 days at 20° C.
Description: (§1) XRPD patterns are obtained using a Bruker D8 Advance equipped with a Cu Kα radiation source (λ=1.54 Å), a 9-position sample holder and a LYNXEYE super speed detector. Samples are placed on zero-background, silicon plate holders for analysis. One skilled in the art would recognize that the ° 2θ values and the relative intensity values are generated by performing a peak search on the measured data and the d-spacing values are calculated by the instrument from the ° 2θ values using Bragg's equation. One skilled in the art would further recognize that the relative intensity for the measured peaks may vary as a result of sample preparation, orientation and instrument used, for example.
In another embodiment, Form A of fedratinib diHCl is retained by producing a slurry. […]

[2] = Dynamic vapor sorption (DVS) humidity cycling, solid analysed by XRPD; format: physicochemical; conditions: start 50% relative humidity, up to 90%, down to 0%, 10% steps, cycle repeated 3 times
Description: as §1
In another embodiment, amorphous fedratinib diHCl is prepared by: • a) subjecting Form A of fedratinib diHCl to a dynamic vapor sorption method to yield amorphous fedratinib diHCl, wherein the dynamic vapor sorption method comprises exposing the Form A of fedratinib diHCl to a relative humidity of about 50% and adjusting the relative humidity to between about 0-90% with about a 10% increase or decrease in humidity at each step for 3 cycles.
Form A of fedratinib diHCl is subjected to DVS with initial exposure to 50% relative humidity. The relative humidity is then increased to 90% with a 10% increase in humidity at each step. […]

## Cc1cnc(Nc2ccc(OCCN3CCCC3)cc2)nc1Nc1cccc(S(=O)(=O)NC(C)(C)C)c1 [Form A of fedratinib diHCl, N-tert-butyl-3-[[5-methyl-2-[4-(2-pyrrolidin-1-ylethoxy)anilino]pyrimidin-4-yl]amino]benzenesulfonamide]
[1]
  solid form by XRPD after slurry: determined to be Form A of fedratinib diHCl
[2]
  solid form by XRPD after DVS: determined to be amorphous fedratinib diHCl
